Reference: patent US20240208992A1, “MACROCYCLES AS CFTR MODULATORS” (Idorsia Pharmaceuticals Ltd, priority 2021, published 2024)

Biological target: human F508del-CFTR (Homo sapiens, UniProt P13569, DEL508-508)
Assay: F508del-CFTR cell surface expression (corrector activity), DiscoveRx ß-galactosidase complementation chemiluminescence assay in recombinant U2OS cell line;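 note: U2OS cells co-expressing ProLink-tagged F508del-CFTR and a membrane-anchored enzyme acceptor, where more surface CFTR restores β-galactosidase activity measured by chemiluminescence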
Details: for EC50: EC50, F508del-CFTR cell surface expression, U2OS cells, 16h compound incubation, geomean values; for Emax: U2OS, in relation to Emax of corrector lumacaftor (=100%), arithmetic mean values

Chain of human F508del-CFTR (P13569 with tags, fused parts or gaps DEL508-508): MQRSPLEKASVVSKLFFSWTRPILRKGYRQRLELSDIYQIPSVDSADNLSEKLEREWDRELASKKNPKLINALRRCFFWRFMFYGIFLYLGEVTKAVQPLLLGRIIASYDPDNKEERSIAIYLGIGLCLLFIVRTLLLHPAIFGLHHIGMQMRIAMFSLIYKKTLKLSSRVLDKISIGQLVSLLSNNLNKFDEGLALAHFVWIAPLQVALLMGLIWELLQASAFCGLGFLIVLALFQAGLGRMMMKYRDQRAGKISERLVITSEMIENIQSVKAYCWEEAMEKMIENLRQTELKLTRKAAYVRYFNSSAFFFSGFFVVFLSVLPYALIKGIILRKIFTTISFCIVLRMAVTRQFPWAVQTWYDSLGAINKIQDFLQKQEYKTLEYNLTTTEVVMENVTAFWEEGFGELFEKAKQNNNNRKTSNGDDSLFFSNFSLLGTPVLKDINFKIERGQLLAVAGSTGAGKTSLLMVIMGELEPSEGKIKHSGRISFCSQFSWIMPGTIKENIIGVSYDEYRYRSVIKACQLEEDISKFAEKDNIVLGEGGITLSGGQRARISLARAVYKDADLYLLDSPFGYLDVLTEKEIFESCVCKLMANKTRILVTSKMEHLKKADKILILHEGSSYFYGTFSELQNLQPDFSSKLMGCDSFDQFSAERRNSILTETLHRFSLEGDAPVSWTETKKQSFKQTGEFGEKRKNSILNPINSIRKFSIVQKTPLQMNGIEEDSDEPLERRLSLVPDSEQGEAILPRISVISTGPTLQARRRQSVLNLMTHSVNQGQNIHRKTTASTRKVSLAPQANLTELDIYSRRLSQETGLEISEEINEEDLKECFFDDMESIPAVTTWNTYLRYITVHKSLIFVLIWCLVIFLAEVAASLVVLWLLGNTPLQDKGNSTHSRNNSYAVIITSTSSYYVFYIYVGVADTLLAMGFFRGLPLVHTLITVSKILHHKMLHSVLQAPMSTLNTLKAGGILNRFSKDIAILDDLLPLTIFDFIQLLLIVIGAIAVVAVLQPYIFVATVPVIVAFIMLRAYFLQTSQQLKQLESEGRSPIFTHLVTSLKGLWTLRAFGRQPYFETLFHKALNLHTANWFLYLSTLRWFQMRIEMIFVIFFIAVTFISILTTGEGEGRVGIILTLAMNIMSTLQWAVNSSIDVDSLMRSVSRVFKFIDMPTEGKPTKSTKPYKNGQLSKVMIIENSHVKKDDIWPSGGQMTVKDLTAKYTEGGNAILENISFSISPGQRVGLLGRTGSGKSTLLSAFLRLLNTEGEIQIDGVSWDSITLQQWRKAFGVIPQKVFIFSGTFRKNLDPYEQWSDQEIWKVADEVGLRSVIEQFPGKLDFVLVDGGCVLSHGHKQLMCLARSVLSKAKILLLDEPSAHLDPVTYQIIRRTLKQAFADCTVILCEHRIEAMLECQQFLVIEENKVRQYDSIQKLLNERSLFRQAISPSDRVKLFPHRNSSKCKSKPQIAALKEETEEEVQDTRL

Structure (SMILES)	EC50	Emax
CC(C)C[C@H]1C(=O)N(CCC2CCCCC2)CC(=O)N[C@H](Cc2ccccc2)COc2ccncc2C(=O)N[C@H](C(=O)NCCc2ccc3c(c2)OCO3)CC(=O)N1C [Example 589, (3R,9S,13S)-N-(2-(benzo[d][1,3]dioxol-5-yl)ethyl)-3-benzyl-7-(2-cyclohexylethyl)-9-isobutyl-10-methyl-5,8,11,15-tetraoxo-2,3,4,5,6,7,8,9,10,11,12,13,14,15-tetradecahydropyrido[3,4-p][1]oxa[4,7,10,14]tetraazacycloheptadecine-13-carboxamide]	298 nM	160%
COc1cccc(CCNC(=O)[C@@H]2CC(=O)N(C)[C@@H](CC(C)C)C(=O)N(CCC3CCCCC3)CC(=O)N[C@H](Cc3ccccc3)COc3ccncc3C(=O)N2)c1 [Example 590, (3R,9S,13S)-3-benzyl-7-(2-cyclohexylethyl)-9-isobutyl-N-(3-methoxyphenethyl)-10-methyl-5,8,11,15-tetraoxo-2,3,4,5,6,7,8,9,10,11,12,13,14,15-tetradecahydropyrido[3,4-p][1]oxa[4,7,10,14]tetraazacycloheptadecine-13-carboxamide]	362 nM	201%
COc1cccc(CCNC(=O)[C@@H]2CC(=O)N(C)[C@@H](CC(C)C)C(=O)N3CCCC[C@@H]3C(=O)N[C@H](Cc3ccccc3)COc3cccc(OC)c3C(=O)N2)c1 [Example 591, (7S,11S,20R,22aR)-20-benzyl-7-isobutyl-14-methoxy-N-(3-methoxyphenethyl)-8-methyl-6,9,13,22-tetraoxo-1,3,4,6,7,8,9,10,11,12,13,19,20,21,22,22a-hexadecahydro-2H-benzo[p]pyrido[2,1-f][1]oxa[4,7,10,14]tetraazacycloheptadecine-11-carboxamide]	341 nM	259%
CC(C)C[C@H]1C(=O)N2CCCC[C@H]2C(=O)N[C@H](Cc2ccccc2)COc2ccncc2C(=O)N[C@H](C(=O)NCCc2ccc3c(c2)OCC3)CC(=O)N1C [Example 592, (7S,11S,17aS,20R)-20-benzyl-N-(2-(2,3-dihydrobenzofuran-6-yl)ethyl)-11-isobutyl-10-methyl-5,9,12,18-tetraoxo-5,6,7,8,9,10,11,12,15,16,17,17a,18,19,20,21-hexadecahydro-14H-dipyrido[2,1-f:3′,4′-p][1]oxa[4,7,10,14]tetraazacycloheptadecine-7-carboxamide]	881 nM	119%
CC(C)C[C@H]1C(=O)N2CCCC[C@@H]2C(=O)N[C@H](Cc2ccccc2)COc2ccncc2C(=O)N[C@H](C(=O)NCCc2ccc3c(c2)OCC3)CC(=O)N1C [Example 593, (7S,11S,17aR,20R)-20-benzyl-N-(2-(2,3-dihydrobenzofuran-6-yl)ethyl)-11-isobutyl-10-methyl-5,9,12,18-tetraoxo-5,6,7,8,9,10,11,12,15,16,17,17a,18,19,20,21-hexadecahydro-14H-dipyrido[2,1-f:3′,4′-p][1]oxa[4,7,10,14]tetraazacycloheptadecine-7-carboxamide]	614 nM	190%
CC(C)C[C@H]1C(=O)N2CCCC[C@@H]2C(=O)N[C@H](Cc2ccccc2)COc2ccncc2C(=O)N[C@H](C(=O)NCCc2ccc3c(c2)OCCO3)CC(=O)N1C [Example 594, (7S,11S,17aR,20R)-20-benzyl-N-(2-(2,3-dihydrobenzo[b][1,4]dioxin-6-yl)ethyl)-11-isobutyl-10-methyl-5,9,12,18-tetraoxo-5,6,7,8,9,10,11,12,15,16,17,17a,18,19,20,21-hexadecahydro-14H-dipyrido[2,1-f:3′,4′-p][1]oxa[4,7,10,14]tetraazacycloheptadecine-7-carboxamide]	810 nM	171%
COc1cccc(CCNC(=O)[C@@H]2CC(=O)N(C)[C@@H](CC(C)C)C(=O)N(C)CC(=O)N[C@H](Cc3ccccc3)COc3ccc4ccccc4c3C(=O)N2)c1 [Example 595, (3S,7S,13R)-13-benzyl-7-isobutyl-N-(3-methoxyphenethyl)-6,9-dimethyl-1,5,8,11-tetraoxo-1,2,3,4,5,6,7,8,9,10,11,12,13,14-tetradecahydronaphtho[1,2-p][1]oxa[4,7,10,14]tetraazacycloheptadecine-3-carboxamide]	332 nM	233%
COc1cc2c(cc1OC)C(=O)N[C@H](C(=O)NCCc1ccc3c(c1)OCCC3)CC(=O)N(C)[C@@H](CC(C)C)C(=O)N(CCC1CCCCC1)CC(=O)N[C@H](Cc1ccccc1)CO2 [Example 596, (3R,9S,13S)-3-benzyl-N-(2-(chroman-7-yl)ethyl)-7-(2-cyclohexylethyl)-9-isobutyl-17,18-dimethoxy-10-methyl-5,8,11,15-tetraoxo-2,3,4,5,6,7,8,9,10,11,12,13,14,15-tetradecahydrobenzo[p][1]oxa[4,7,10,14]tetraazacycloheptadecine-13-carboxamide]	167 nM	195%
COc1cc2c(cc1OC)C(=O)N[C@H](C(=O)NCCc1ccc3c(c1)OCC3)CC(=O)N(C)[C@@H](CC(C)C)C(=O)N(CCC1CCCCC1)CC(=O)N[C@H](Cc1ccccc1)CO2 [Example 597, (3R,9S,13S)-3-benzyl-7-(2-cyclohexylethyl)-N-(2-(2,3-dihydrobenzofuran-6-yl)ethyl)-9-isobutyl-17,18-dimethoxy-10-methyl-5,8,11,15-tetraoxo-2,3,4,5,6,7,8,9,10,11,12,13,14,15-tetradecahydrobenzo[p][1]oxa[4,7,10,14]tetraazacycloheptadecine-13-carboxamide]	168 nM	211%
COc1cccc(CCNC(=O)[C@@H]2CC(=O)N(C)[C@@H](CC(C)C)C(=O)N(C)CC(=O)N[C@H](Cc3ccccc3)COc3ccc4nc(C)oc4c3C(=O)N2)c1 [Example 598, (8R,14S,18S)-8-benzyl-14-isobutyl-N-(3-methoxyphenethyl)-2,12,15-trimethyl-10,13,16,20-tetraoxo-7,8,9,10,11,12,13,14,15,16,17,18,19,20-tetradecahydrooxazolo[4′,5′:5,6]benzo[1,2-p][1]oxa[4,7,10,14]tetraazacycloheptadecine-18-carboxamide]	759 nM	312%
CC(C)C[C@H]1C(=O)N(CCC2CCCCC2)CC(=O)N[C@H](Cc2ccccc2)COc2ccc3ccccc3c2C(=O)N[C@H](C(=O)NCCc2ccc3c(c2)OCCC3)CC(=O)N1C [Example 599, (3S,7S,13R)-13-benzyl-N-(2-(chroman-7-yl)ethyl)-9-(2-cyclohexylethyl)-7-isobutyl-6-methyl-1,5,8,11-tetraoxo-1,2,3,4,5,6,7,8,9,10,11,12,13,14-tetradecahydronaphtho[1,2-p][1]oxa[4,7,10,14]tetraazacycloheptadecine-3-carboxamide]	151 nM	299%
CC(C)C[C@H]1C(=O)N(CCC2CCCCC2)CC(=O)N[C@H](Cc2ccccc2)COc2ccc3ccccc3c2C(=O)N[C@H](C(=O)NCCc2ccc3c(c2)OCC3)CC(=O)N1C [Example 600, (3S,7S,13R)-13-benzyl-9-(2-cyclohexylethyl)-N-(2-(2,3-dihydrobenzofuran-6-yl)ethyl)-7-isobutyl-6-methyl-1,5,8,11-tetraoxo-1,2,3,4,5,6,7,8,9,10,11,12,13,14-tetradecahydronaphtho[1,2-p][1]oxa[4,7,10,14]tetraazacycloheptadecine-3-carboxamide]	97 nM	286%
COc1cccc(CCNC(=O)[C@@H]2CC(=O)N(C)[C@@H](CC(C)C)C(=O)N3CCCC[C@H]3C(=O)N[C@H](Cc3ccccc3)COc3cc(OC)cc(OC)c3C(=O)N2)c1 [Example 601, (7S,11S,20R,22aS)-20-benzyl-7-isobutyl-14,16-dimethoxy-N-(3-methoxyphenethyl)-8-methyl-6,9,13,22-tetraoxo-1,3,4,6,7,8,9,10,11,12,13,19,20,21,22,22a-hexadecahydro-2H-benzo[p]pyrido[2,1-f][1]oxa[4,7,10,14]tetraazacycloheptadecine-11-carboxamide]	589 nM	138%
COc1cccc(CCNC(=O)[C@@H]2CC(=O)N(C)[C@@H](CC(C)C)C(=O)N3CCCC[C@@H]3C(=O)N[C@H](Cc3ccccc3)COc3cc(OC)cc(OC)c3C(=O)N2)c1 [Example 602, (7S,11S,20R,22aR)-20-benzyl-7-isobutyl-14,16-dimethoxy-N-(3-methoxyphenethyl)-8-methyl-6,9,13,22-tetraoxo-1,3,4,6,7,8,9,10,11,12,13,19,20,21,22,22a-hexadecahydro-2H-benzo[p]pyrido[2,1-f][1]oxa[4,7,10,14]tetraazacycloheptadecine-11-carboxamide]	286 nM	299%
COc1cccc(CCNC(=O)[C@@H]2CC(=O)N(C)[C@@H](CC(C)C)C(=O)N3CCCC[C@@H]3C(=O)N[C@H](Cc3ccccc3)COc3ccc4ccccc4c3C(=O)N2)c1 [Example 603, (4aR,7R,18S,22S)-7-benzyl-22-isobutyl-N-(3-methoxyphenethyl)-21-methyl-5,16,20,23-tetraoxo-2,3,4,4a,5,6,7,8,16,17,18,19,20,21,22,23-hexadecahydro-1H-naphtho[1,2-p]pyrido[2,1-f][1]oxa[4,7,10,14]tetraazacycloheptadecine-18-carboxamide]	205 nM	301%
COc1cccc(CCNC(=O)[C@@H]2CC(=O)N(C)[C@@H](CC(C)C)C(=O)N3CCCC[C@H]3C(=O)N[C@H](Cc3ccccc3)COc3ccc4ccccc4c3C(=O)N2)c1 [Example 604, (4aS,7R,18S,22S)-7-benzyl-22-isobutyl-N-(3-methoxyphenethyl)-21-methyl-5,16,20,23-tetraoxo-2,3,4,4a,5,6,7,8,16,17,18,19,20,21,22,23-hexadecahydro-1H-naphtho[1,2-p]pyrido[2,1-f][1]oxa[4,7,10,14]tetraazacycloheptadecine-18-carboxamide]	354 nM	103%
